{"source": "paper PMC4469479", "about": "(Nature, 2015)", "key": {"dDATmfc sub^B": {"biological_target": "dDATmfc sub^B (Drosophila melanogaster, UniProt Q7K4Y6, D121G/DEL162-202/DEL602-606/INS607VPRG/L415A/S426M/V74A)", "format": "binding"}, "dDATmfc [1]": {"biological_target": "T1, dDATmfc (Drosophila melanogaster, UniProt Q7K4Y6, DEL162-202/DEL602-606/INS607VPRG/L415A/V74A)", "format": "binding"}, "dDATmfc [2]": {"biological_target": "T1, dDATmfc", "details": "HEK293S cells; 14C-DA 0.3–60 μM; s.e.m."}}}
{"smiles": "NCCc1ccc(Cl)c(Cl)c1", "note": "[DCP, 3,4-dichlorophenethylamine]", "values": [{"measurement": "Ki", "setting": "dDATmfc sub^B", "result": "0.267 ± 0.02", "unit": "µM"}]}
{"smiles": "COC(=O)[C@H]1[C@@H](OC(=O)c2ccccc2)C[C@@H]2CC[C@H]1N2C", "note": "[cocaine]", "values": [{"measurement": "Ki", "setting": "dDATmfc [1]", "result": "33 ± 3", "unit": "µM"}]}
{"smiles": "NCCc1ccc(O)c(O)c1", "note": "[dopamine]", "values": [{"measurement": "Vmax of DA transport by dDATmfc", "setting": "dDATmfc [2]", "result": "2.4 ± 0.2", "unit": "pmol/min/10^6 cells"}]}
